In this experiment the target is T1, human GPR84 receptor (Homo sapiens, UniProt Q9NQS5).
T1 construct: host or cells: HEK293, transient transfection
Briefly: Gαi biosensor BRET assay in HEK293 cells (antagonism of ZQ-16). It is filed as cell-based. The following applies: for inhibition at 10 µM: HEK293, single concentration 10 μM (designated F); for IC50: HEK293 cells, antagonism of 200 nmol/L ZQ-16; for inhibition at 25 µM: HEK293, single concentration 25 μM (designated I); for inhibition at 2 µM: HEK293, single concentration 2 μM (designated A). In outline: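 HEK293 cells transiently expressing human GPR84, Gαi2-Rluc8, GFP10-Gγ2 and Gβ1, in Tyrode's buffer pH 7.5. Compounds preincubated 5 min at 37° C, then 200 nmol/L ZQ-16 for 5 min at room temperature; coelenterazine 400A 5 μmol/L. BRET2 acceptor/donor ratio, background- and vehicle-corrected net BRET.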

T1 sequence (Q9NQS5 whole entry): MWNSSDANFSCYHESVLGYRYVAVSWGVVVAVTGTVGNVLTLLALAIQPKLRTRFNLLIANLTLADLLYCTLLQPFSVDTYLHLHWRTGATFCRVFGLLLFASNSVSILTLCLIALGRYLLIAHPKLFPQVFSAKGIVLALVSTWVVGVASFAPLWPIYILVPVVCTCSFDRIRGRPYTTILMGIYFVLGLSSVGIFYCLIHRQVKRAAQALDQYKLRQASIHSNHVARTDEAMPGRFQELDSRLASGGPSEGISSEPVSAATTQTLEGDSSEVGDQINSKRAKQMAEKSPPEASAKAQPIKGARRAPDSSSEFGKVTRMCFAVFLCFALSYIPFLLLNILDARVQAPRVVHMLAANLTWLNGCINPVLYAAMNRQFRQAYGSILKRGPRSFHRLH

On to `Cc1cc(C#CC2CC2)ccc1Cc1cn(CC2CCCCO2)nn1` (centres unmarked) [Compound I-300], for which the inhibition at 10 µM was 25 to 50%.
The molecule `Cc1cc(N2CCN(Cc3ccccn3)CC2)ccc1-c1cn(CC2CC(C)(C)O2)nn1` (centres unmarked) [Compound I-561] registered an inhibition at 10 µM of more than 75% and a 50% inhibitory concentration (IC50) of more than 3000 nM.
`Cc1cc(CO)ccc1-c1cn(CC2CCCCO2)nn1` (centres unmarked) [Compound I-468] had an inhibition at 10 µM of 25 to 50%.
Same read-out and setting: the result for `Cc1c(C(C)c2cccc(C#CC3CC3)c2)nnn1CC1CCCCO1` (centres unmarked) [Compound I-624] reads not above 25%.
In the case of `COC(=O)N1CCC(c2ccc(-c3cn(CC4CCCCO4)nn3)c(C)c2)CC1` (centres unmarked) [Compound I-484], the inhibition at 10 µM was not above 25%.
Consider `Cc1cc(C#CC2CC2)ccc1-c1cn(CC2CC(C)(C)CCO2)nn1` (centres unmarked) [Compound I-599], for which the inhibition at 10 µM is not above 25%.
Still for that read-out and setting: under `Cc1cc(C#CCN2CCCC2C(=O)O)ccc1-c1cn(CC2CCCCO2)nn1` (centres unmarked) [Compound I-247] stands not above 25%.
As for `Cc1ncn(CC2CCCCO2)c1-c1ccc(C#CC2CC2)cc1` (centres unmarked) [Compound I-335], the inhibition at 25 µM lay in the range of 25 to 50%.
Consider `CN(C)c1cc(N2CC(C)(C(=O)O)C2)ccc1-c1cn(CC2OCC(C)(C)CO2)nn1` [Compound I-696], for which the inhibition at 10 µM lay within 25 to 50%.
Consider `Cc1cc(C(=O)n2ccc(N)n2)ccc1-c1cn(CC2CCCCO2)nn1` (centres unmarked) [Compound I-438], for which the inhibition at 10 µM is 25 to 50%.
Molecule `Cc1ccc(-c2cccc(-c3nnn(CC4CCCCO4)c3C)c2)cn1` (centres unmarked) [Compound I-95] yielded an inhibition at 10 µM not above 25%.
Regarding `Cc1cc(N2CC(C)C2)ccc1-c1cn(CC2CCCCO2)nn1` (centres unmarked) [Compound I-264], the inhibition at 10 µM was in the range of 50 to 75%.
Consider `CC1(C)COC(Cn2cc(-c3ncc(C#CCN4CC(C)(C)C4)cc3OC3CC3)nn2)OC1` [Compound I-709], for which the inhibition at 2 µM was more than 75% and the IC50 was not above 300 nM.
With `COC(C)Cn1cc(-c2ccc(C#CCNc3ccccc3)cc2C)nn1` (centres unmarked) [Compound I-162], the inhibition at 10 µM lay within 25 to 50%.
Consider `CC1(NCc2ccccn2)CN(c2ccc(-c3cn(CC4CCCCO4)nn3)c(CC(F)(F)F)c2)C1` (centres unmarked) [Compound I-744], for which the inhibition at 10 µM was more than 75% and the half-maximal inhibitory concentration (IC50) fell in the range of 300 to 1000 nM.
Molecule `CC(=O)NC(C)(C)COc1ccc(-c2cn(CC3CCCCO3)nn2)c(C)c1` (centres unmarked) [Compound I-265] returned an inhibition at 10 µM of 25 to 50%.
`CN(c1cccc(C#CC2CC2)c1)c1cn(CC2OCC(C)(C)CO2)nn1` [Compound I-824] yielded an inhibition at 10 µM not above 25%.
Take `Cc1cc(C#CC2CC2)ccc1-c1cn(CC2COc3ccccc3O2)nn1` (centres unmarked) [Compound I-101]: the inhibition at 10 µM was in the range of 25 to 50%.
`Cc1ccc(-c2ccc(-c3cn(CC4CCCCO4)nn3)c(C)c2)cn1` (centres unmarked) [Compound I-36] yielded an inhibition at 25 µM of 25 to 50% and an IC50 of more than 3000 nM.
In turn, `Cc1c(-c2ccc(C#CC3CC3)cc2)nnn1CC1CCCCS1(=O)=O` (centres unmarked) [Compound I-574] gave an inhibition at 10 µM not above 25%.
In turn, `CC1(C)COC(Cn2cc(-c3ncc(C#CCN4CC(C)(C)C4)cc3CC(F)(F)F)nn2)OC1` [Compound I-762] showed an IC50 not above 300 nM.
`C(#CC1CC1)c1ccc(-c2cn(CC3OCCCO3)nn2)cc1` [Compound I-102] registered an inhibition at 10 µM of 25 to 50%.
`OCC#Cc1ccc(-c2cn(CC3OCC4(CCC4)O3)nn2)c(CC(F)(F)F)c1` (centres unmarked) [Compound I-808] registered an inhibition at 2 µM of more than 75% and an IC50 of 300 to 1000 nM.
`Cc1cc(C#CC2CC2)ccc1-c1cn(CC2CCC(C)(C)O2)nn1` (centres unmarked) [Compound I-164] returned an inhibition at 10 µM of more than 75% and an IC50 of 1000 to 3000 nM.
`COCC#Cc1cnc(-c2cn(CC3OCC(C)(C)CO3)nn2)c(OC2CC2)c1` [Compound I-757] displayed an inhibition at 2 µM of more than 75% and an IC50 not above 300 nM.
The molecule `C(#CC1CC1)c1ccc2c(c1)CCn1nc(OC[C@H]3COCCO3)cc1-2` (stereo in doubt) [Compound I-332, 2-((1,4-dioxan-2-yl)methoxy)-8-(cyclopropylethynyl)-5,6-dihydropyrazolo[5,1-a]isoquinoline] yielded an inhibition at 10 µM not above 25%.
The molecule `CN(C)c1cc(N2CC3(COC3)C2)ccc1-c1cn(CC2OCC3(CC3)CO2)nn1` [Compound I-853] yielded an inhibition at 10 µM not above 25%.
The same measure, in the same setting: under `Cc1cc(N2CCC2)ccc1-c1cn(CC2CCCCO2)nn1` (centres unmarked) [Compound I-157] stands 50 to 75%.
For the molecule `Cc1cc(N2CCC3(CC2)CN(C)C3)ccc1-c1cn(CC2CCCCO2)nn1` (centres unmarked) [Compound I-172], the inhibition at 10 µM is not above 25%.
Consider `CCc1cc(C#CCNC(=O)OC)ccc1-c1cn(CC2CCCCO2)nn1` (centres unmarked) [Compound I-586], for which the inhibition at 10 µM is more than 75% and the IC50 lay within 1000 to 3000 nM.
The molecule `NC(=O)c1cc(C#CC2CC2)ccc1-c1cn(CC2CCCCO2)nn1` (centres unmarked) [Compound I-234] came in with an inhibition at 10 µM not above 25%.
`COCC#Cc1cnc(-c2cn(CC3OCC(C)(C)CO3)nn2)c(OC(C)C)c1` [Compound I-837] registered an inhibition at 10 µM not above 25%.
`CC1(C)CN(c2ccc(-c3cn(C[C@H]4CCCCO4)nn3)c(OC3CC3)c2)C1` [Compound I-749] had an inhibition at 2 µM of more than 75%, an inhibition at 10 µM of 50 to 75% and an IC50 not above 300 nM.
`CCc1cc(N2CC(C)(C)C2)cnc1-c1cn(CC2CCCCO2)nn1` (centres unmarked) [Compound I-260]: the inhibition at 10 µM was 50 to 75%.
Same read-out and setting: under `Cc1cc(NS(C)(=O)=O)ccc1-c1cn(CC2CCCCO2)nn1` (centres unmarked) [Compound I-130] stands not above 25%; under `Cc1cc(OCC(F)(F)F)cnc1-c1cn(CC2OCC(C)(C)CO2)nn1` [Compound I-638], not above 25%; under `Cc1cc(C#CC2CC2)ccc1-n1nc(OC[C@H]2COCCO2)oc1=O` [Compound I-13], 25 to 50%.
The same measure, in the same setting: under `Cc1cc(C#CC2COC2)ccc1-c1cn(CC2CCCCO2)nn1` (centres unmarked) [Compound I-576] stands 50 to 75%.
`OCC#Cc1cnc(-c2cn(CC3OCC4(CC4)CO3)nn2)c(OC2CC2)c1` [Compound I-839] came in with an inhibition at 10 µM of more than 75%.
In turn, `Cc1cc(OCc2ccccc2)ccc1-c1cn(CC2CCCCO2)nn1` (centres unmarked) [Compound I-52] had an inhibition at 25 µM not above 25%.
In turn, `CCc1cc(C#CCNC)ccc1-c1cn(CC2OCC(C)(C)CO2)nn1` [Compound I-859] came in with an inhibition at 2 µM of more than 75%.
`Cc1cc(N2CCN(Cc3cncnc3)CC2)ccc1-c1cn(CC2CCCCO2)nn1` (centres unmarked) [Compound I-566] gave an inhibition at 10 µM of 25 to 50%.
Take `Cc1cc(OCc2ccccn2)ccc1-c1cn(CC2CCCCO2)nn1` (centres unmarked) [Compound I-54]: the inhibition at 25 µM was 50 to 75% and the IC50 fell in the range of 300 to 1000 nM.
For `Cc1cc(C#CC2CC2)ccc1-c1cn(CC2CCC(F)(F)CO2)nn1` (centres unmarked) [Compound I-207], the inhibition at 10 µM was in the range of 50 to 75%.
As to `CC(=O)NCC1(C)CN(c2ccc(-c3cn(CC4CCCCO4)nn3)c(C)c2)C1` (centres unmarked) [Compound I-447], the inhibition at 10 µM was 25 to 50%.
On to `COCC#Cc1cnc(-c2cn(CC3OCC4(CC4)CO3)nn2)c(OC2CC2)c1` [Compound I-833], for which the inhibition at 10 µM is not above 25% and the IC50 is not above 300 nM.
In turn, `COCC#Cc1cnc(-c2cn(CC3OCC(C)(C)CO3)cn2)c(OC2CC2)c1` [Compound I-848] came in with an inhibition at 10 µM not above 25%.
Still for that read-out and setting: the result for `Cc1cc(C#CC2CC2)cnc1-c1cn(Cc2ncccn2)nn1` [Compound I-453] reads not above 25%; that for `Cc1cc(C2CCN(Cc3ccccn3)CC2)cnc1-c1cn(CC2CCCCO2)nn1` (centres unmarked) [Compound I-482], not above 25%; that for `CCOCC#Cc1cnc(-c2cn(CC3OCC(C)(C)CO3)nn2)c(OC(C)C)c1` [Compound I-838], 50 to 75%.
Molecule `Cc1cc(N2CCN([C@H](C)c3ccccn3)CC2)ccc1-c1cn(CC2OCC(C)(C)CO2)nn1` [Compound I-715] had an inhibition at 10 µM of more than 75%.
`C(#CC1CC1)c1ccc(-c2nnn(CC3COCCO3)n2)cc1` (centres unmarked) [Compound I-3] showed an inhibition at 25 µM not above 25%.
Take `Cc1cc(C#CCNC(=O)C(F)(F)F)cnc1-c1cn(CC2CCCCO2)nn1` (centres unmarked) [Compound I-843, 2,2,2-trifluoro-N-(3-(5-methyl-6-(1-((tetrahydro-2H-pyran-2-yl)methyl)-1H-1,2,3-triazol-4-yl)pyridin-3-yl)prop-2-yn-1-yl)acetamide]: the inhibition at 10 µM is more than 75%.
The same measure, in the same setting: under `Cc1ccc(C#CCN2CC(C)(C)C2)cc1Cc1cn(CC2CCCCO2)nn1` (centres unmarked) [Compound I-415] stands 25 to 50%; under `C(#Cc1ccc(-c2cn(CC3CCCCO3)nn2)cc1)CC1CC1` (centres unmarked) [Compound I-44], not above 25%; under `COC(c1cn(CC2CCCCO2)nn1)c1cc(N2CC(C)(C)C2)ccc1C` (centres unmarked) [Compound I-593], not above 25%.
On to `Cc1cc(N2CCN(Cc3ccnn3C)CC2)ccc1-c1cn(CC2CCCCO2)nn1` (centres unmarked) [Compound I-581], for which the inhibition at 10 µM is not above 25%.
`COC(=O)N1CCOC(Cn2cc(-c3ccc(C#CC4CC4)cc3C)nn2)C1` (centres unmarked) [Compound I-105] gave an inhibition at 10 µM not above 25%.
Same read-out and setting: the result for `Cc1cc(N2CCN(Cc3ccccn3)CC2=O)ccc1-c1cn(CC2OCC(C)(C)CO2)nn1` [Compound I-751] reads 25 to 50%.
On the same count and under the same terms, under `COC(=O)N1CCOCC1Cn1cc(-c2ccc(C#CC3CC3)cc2C)nn1` (centres unmarked) [Compound I-106] stands not above 25%; under `Cc1ccc(-c2ccc(-c3ncn(CC4CCCCO4)c3C)cc2)cn1` (centres unmarked) [Compound I-340], 25 to 50%.
Molecule `CN(C)c1cc(N2CC(C)(C)C2)ccc1-c1cn(CC2CCCCO2)nn1` (centres unmarked) [Compound I-202] came in with an inhibition at 10 µM of more than 75% and an IC50 of 1000 to 3000 nM.
As for `Cc1c(-c2ccc(OCc3ccccc3)cc2)nnn1CC1CCCCO1` (centres unmarked) [Compound I-46], under “HEK293, single concentration 5 μM (designated D)”, the inhibition at 5 µM is not above 25%.
The molecule `CNC1CCCN(c2ccc(-c3cn(CC4CCCCO4)nn3)c(C)c2)C1` (centres unmarked) [Compound I-170] returned an inhibition at 10 µM not above 25%.
